Assay results from US5385842A, “Anthraquinones as inhibitors of sulfide production from sulfate-reducing bacteria” (E. I. Du Pont de Nemours and Company, priority 1993, dated 1995).
Structures can show the parent of a compound that is named as a salt.

The compounds below were run on Desulfovibrio desulfuricans G100A (assay: microbe, parasite or virus in culture). Conditions: Desulfovibrio desulfuricans, G100A, read-out: % Inhib. (inhibition of sulfide production).
Type: cell-based

| Structure (SMILES) | inhibition at 10 ppm | inhibition at 30 ppm |
| --- | --- | --- |
| O=C1c2cccc(O)c2C(=O)c2c(O)cc(CO)cc21 [Aloe-emodin, 1,8-Dihydroxy-3-(hydroxymethyl)-anthraquinone] | 43.8% |  |
| NCCSc1cc(O)c2c(c1N)C(=O)c1ccccc1C2=O [1-Amino-2-(2-aminoethylthio)-4-hydroxyanthraquinone] |  | 24.7% |
| Nc1cccc2c1C(=O)c1cc(Cl)c(Cl)cc1C2=O [1-Amino-6,7-dichloroanthraquinone] |  | 22.9% |
| O=C1c2ccc(S(=O)(=O)O)cc2C(=O)c2cc(S(=O)(=O)O)ccc21 [9,10-Dihydro-9,10-dioxo-2,7-anthracenedisulfonic acid, di Na salt] |  | 9.1% |
| O=C(O)CN(CC(=O)O)Cc1cc2c(c(O)c1O)C(=O)c1ccccc1C2=O [Alizarin complexone dehydrate, (3,4-dihydroxy-2-anthraquinonyl)-methyliminodiacetic acid] |  | 14.3% |
| CNc1ccc(Nc2ccc(C)cc2S(=O)(=O)O)c2c1C(=O)c1ccccc1C2=O [Alizarine astrol B-CF, 2-[[9,10-Dihydro-4-(methylamino)-9,10-dioxo-1-anthracenyl]amino]-5-methyl-benzenesulfonic acid, monosodium salt] | 2.6% |  |
| Nc1ccc(NC(=O)c2ccccc2)c2c1C(=O)c1ccccc1C2=O [1-Amino-4-benzamidoanthraquinone, N-(4-Amino-9,10-dihydro-9,10-dioxo-1-anthracenyl)-benzamide] |  | 0% |
| Nc1cccc2c1C(=O)c1cccc(Cl)c1C2=O [5-Chloro-1-aminoanthraquinone] | 57.1% |  |
| O=C1c2ccccc2C(=O)c2c1cc(O)c(O)c2O [Anthragallol, 1,2,3-trihydroxyanthraquinone] |  | 2.6% |
| Cc1cc(O)c2c(c1)C(=O)c1cccc(O)c1C2=O [Chrysophanic acid, 1,8-Dihydroxy-3-methylanthraquinone] |  | 27.9% |
| COc1cc2c(cc1C)C(=O)c1ccccc1C2=O [2-Methoxy-3-methyl-9,10-anthracenedione] |  | 5% |
| Nc1ccc2c(c1)C(=O)c1ccc(N)cc1C2=O [2,6-Diaminoanthraquinone] | 27.2% |  |
| Cc1ccc(Nc2ccc(Nc3ccc(C)cc3S(=O)(=O)O)c3c2C(=O)c2ccccc2C3=O)c(S(=O)(=O)O)c1 [Acid green 25, 2,2'-[(9,10-Dihydro-9,10-dioxo-1,4-anthracenediyl)-diimino]bis[5-methylbenzenesulfonic acid],di Na salt] | 38.8% |  |
| COc1cc(O)c2c(c1)C(=O)c1cc(C)cc(O)c1C2=O [Physcion, 1,8-Dihydroxy-3-methoxy-6-methyl-9,10-anthracenedione] | 34.4% |  |
| O=C1c2c(O)ccc(O)c2C(=O)c2c(O)c(O)c(O)c(O)c21 [Alizarin cyanin, 1,2,3,4,5,8-Hexahydroxyanthraquinone] | 40.6% |  |
| Cc1cc(Cl)c2c(c1N)C(=O)c1ccccc1C2=O [1-Amino-4-chloro-2-methylanthraquinone] |  | 5.2% |
| Nc1cc(S(=O)(=O)O)c(O)c2c1C(=O)c1c(O)c(S(=O)(=O)O)cc(N)c1C2=O [Acid blue 45, 4,8-Diamino-9,10-dihydro-1,5-dihydroxy-9,10-dioxo-2,6-anthracenedisulfonic acid, di Na salt] | 0% |  |
| CC(C)(C)C(=O)Nc1ccc2c(c1)C(=O)c1ccccc1C2=O [2-(2,2,2-Trimethylpropionamido)anthraquinone] |  | 48.1% |
| COc1cc(N)c2c(c1N)C(=O)c1ccccc1C2=O [Disperse red 11, 1,4-Diamino-2-methoxyanthraquinone] |  | 0% |
| CCC(=O)Nc1ccc2c(c1)C(=O)c1ccccc1C2=O [2-Propionamidoanthraquinone] |  | 10.4% |

| Structure (SMILES) | inhibition at 10 ppm | inhibition at 30 ppm |
| --- | --- | --- |
| O=C1c2ccc(O)cc2C(=O)c2c1ccc(O)c2O [Anthrapurpurin, 1,2,7-Trihydroxyanthraquinone] | 37.5% |  |
| O=C1c2ccc(O)cc2C(=O)c2c1cc(S(=O)(=O)O)c(O)c2O [Alizarin rubinol, 9,10-Dihydro-3,4,6-trihydroxy-9,10-dioxo-2-anthracenesulfonic acid] |  | 0% |
| COc1ccc(N)c2c1C(=O)c1ccccc1C2=O [1-Amino-4-methoxyanthraquinone] | 57.1% |  |
| Nc1c(S(=O)(=O)O)cc(Nc2cccc(S(=O)(=O)CCOS(=O)(=O)O)c2)c2c1C(=O)c1ccccc1C2=O [Remazol Brilliant blue R, 1-Amino-9,10-dihydro-9,10-dioxo-4-[[3[[2-(sulfoxy)-ethyl]sulfonyl]phenyl]amino]-2-anthracenesulfonic acid, disodium salt] | 12.4% |  |
| O=C1c2ccccc2C(=O)c2c1cccc2S(=O)(=O)O [1-Anthraquinonesulfonic acid, Na salt] |  | 3.9% |
| CCc1cc(CC)c(Nc2ccc(Nc3c(CC)cc(CC)cc3CC)c3c2C(=O)c2ccccc2C3=O)c(CC)c1 [1,4-Bis[(2,4,6-triethylphenyl)amino]-9,10-anthracenedione] |  | 4.3% |
| O=C1c2ccccc2C(=O)c2c1ccc(O[C@@H]1O[C@H](CO[C@@H]3OC[C@@H](O)[C@H](O)[C@H]3O)[C@@H](O)[C@H](O)[C@H]1O)c2O [Ruberythric acid, 1-Hydroxy-2-[(6-O-β-D-xylopyranosyl-β-D-glucopyranosyl)oxy]-9,10-anthracenedione] | 29.7% |  |
| Cc1cc(O)c2c(c1)C(=O)c1cc(O[C@@H]3OC[C@](O)(CO)[C@H]3O)cc(O)c1C2=O [Frangulin B, 3-(D-apio-beta-D-Furanosyloxy)-1,8-dihydroxy-6-methyl-9,10-anthracenedione] |  | 57.1% |
| Cc1ccc2c(c1)C(=O)c1ccccc1C2=O [2-Methylanthraquinone] |  | 10.4% |
| O=C(O)c1cc2c(cc1C(=O)O)C(=O)c1ccccc1C2=O [9,10-Dihydro-9,10-dioxo-2,3-anthracenedicarboxylic acid] |  | 10% |
| Nc1c(S(=O)(=O)O)cc(Nc2ccc(S(=O)(=O)O)c(Nc3nc(Cl)nc(Nc4cccc(S(=O)(=O)O)c4)n3)c2)c2c1C(=O)c1ccccc1C2=O [Reactive blue 5, 1-Amino-4[[3-[[4-chloro-6-[(3-sulfophenyl)amino]-1,3,5-triazin-2-yl]amino]-4-sulfophenyl]amino]-9,10-dihydro-9,10-dioxo-2-anthracenesulfonic acid] | 0% |  |
| CNc1ccc(N)c2c1C(=O)c1ccccc1C2=O [1-Amino-4-(methylamino)anthraquinone] |  | 0% |
| Cc1ccc(Nc2ccc(Nc3ccc(C)cc3)c3c2C(=O)c2ccccc2C3=O)cc1 [Solvent green 3, 1,4-Bis[(4-methylphenyl)amino]9,10-anthracenedione] |  | 4.3% |
| O=C1c2ccccc2C(=O)c2cc(CO)ccc21 [2-(Hydroxymethyl)anthraquinone] |  | 87% |
| Cc1c(C)c(O)c2c(c1O)C(=O)c1ccccc1C2=O [2,3-dimethyl-1,4-dihydroxyanthraquinone] |  | 5.7% |
| Nc1ccc2c(c1)C(=O)c1ccccc1C2=O [2-Aminoanthraquinone] | 30.4% |  |
| O=C1c2ccccc2C(=O)c2c1ccc1ccccc21 [Benz[a]anthracene-7,12-dione] |  | 52.9% |
| O=C1c2ccccc2C(=O)c2c(O)c(S(=O)(=O)O)c(Oc3ccc(S(=O)(=O)O)cc3)c(O)c21 [2-Phenoxy quinizarin-3,4'-disulfonic acid, di K salt] | 28.1% |  |
| O=C(O)c1ccccc1Nc1cccc2c1C(=O)c1cccc(Nc3ccccc3C(=O)O)c1C2=O [Acridylic acid, 1,5-Bis(2-carboxyanilino)-9,10-anthracenedione] | 33.5% |  |
| CC(=O)Nc1ccc(Nc2cc(S(=O)(=O)O)c(N)c3c2C(=O)c2ccccc2C3=O)cc1 [Acid blue 40, 4-[[4-(Acetylamino)phenyl]amino]-1-amino-9,10-dihydro-9,10-dioxo-2-anthracenesulfonic acid, Na salt] | 12.5% |  |

The compounds below were run on Desulfovibrio gigas (assay: Sulfide production by resting cells of D. gigas). Conditions: Desulfovibrio; 0.1 ppm; 3 hours at 31° C.
Type: cell-based
Description: Experiments in this example were carried out using resting cells of Desulfovibrio gigas rather than growing cells as was the case for the autoanalyzer system employing the Desulfovibrio desulfuricans G100A strain. […] Thus the experiment examined a different organism, different test system, and a different physiological state for the phenomenon of anthraquinone inhibition of sulfide production by Desulfovibrio sp. Active compounds, as determined by the autoanalyzer, were evaluated in comparison with four additional compounds not evaluated in the autoanalyzer.
500 ml cultures of Desulfovibrio gigas were grown on standard BTZ-3 medium as previously described in Example 1 with 30 mM sodium lactate, 30 mM sodium sulfate and 30 mM sodium fumarate. The culture was harvested after 24 h of growth at 31° C. by centrifugation at 8000 rpm in a GSA Sorvall rotor for 20 minutes. The cell pellet was resuspended in 30 ml of incubation assay mixture of the following composition: 50 mM HEPES buffer pH 7 buffer, 2.5 mM sodium lactate, 2.5 mM sodium sulfate. This suspension was centrifuged again at 10,000 rpm in a Sorvall SS-34 rotor for 5 minutes. The resulting cell pellet was resuspended in 5 ml of incubation assay buffer. Cell densities were generally near 10e10 cells/mi.
The samples were assayed for production in the presence of anthraquinones. 200 ul of the cell suspension was added to 1.2 ml of incubation assay mixture in a 5 ml capacity test tube. The tube was gassed with hydrogen gas for 20 minutes then the anthraquinones were added as ethanolic solutions, the tubes were then gassed with hydrogen again for 5 minutes. The reaction mixtures were then incubated for 3 hours at 31° C. The reactions were stopped by the addition of 200 ul of 1N sodium hydroxide. After 20 minutes the alkaline mixtures were centrifuged in a table top microfuge for 4 minutes at 14,000 rpm to remove cells and cell debris. The supernatant was then assayed for sulfide using the ferric chloride-DPD reagent system as described by Siegel et al., Anal. Blochem., 11:126-132, 1965, herein incorporated by reference.

| Structure (SMILES) | activity at 0.1 ppm |
| --- | --- |
| O=C1c2ccccc2C(=O)c2c(F)cccc21 [1-fluoroanthraquinone, 1-Fluoroanthraquinone] | 105% |
| O=C1c2ccccc2C(=O)c2cc(Br)ccc21 [2-bromoanthraquinone, 2-Bromoanthraquinone] | 99% |

Same assay, conditions: Desulfovibrio; 0.5 ppm; 3 hours at 31° C.

| Structure (SMILES) | activity at 0.5 ppm |
| --- | --- |
| O=C1c2ccccc2C(=O)c2c(F)cccc21 [1-fluoroanthraquinone, 1-Fluoroanthraquinone] | 23% |
| O=C1c2ccccc2C(=O)c2cc(Br)ccc21 [2-bromoanthraquinone, 2-Bromoanthraquinone] | 33% |

Same assay, conditions: Desulfovibrio; 2 ppm; 3 hours at 31° C.

| Structure (SMILES) | activity at 2 ppm |
| --- | --- |
| O=C1c2ccccc2C(=O)c2c(F)cccc21 [1-fluoroanthraquinone, 1-Fluoroanthraquinone] | 0.9% |
| O=C1c2ccccc2C(=O)c2cc(Br)ccc21 [2-bromoanthraquinone, 2-Bromoanthraquinone] | 0.6% |

Same assay, conditions: Desulfovibrio; 5 ppm; 3 hours at 31° C.

| Structure (SMILES) | activity at 5 ppm |
| --- | --- |
| O=C1c2ccccc2C(=O)c2c(F)cccc21 [1-fluoroanthraquinone, 1-Fluoroanthraquinone] | 0.9% |
| O=C1c2ccccc2C(=O)c2cc(Br)ccc21 [2-bromoanthraquinone, 2-Bromoanthraquinone] | 0.6% |

Same assay, conditions: resting cells

| Structure (SMILES) | inhibition of sulfide production (in words) |
| --- | --- |
| O=C1c2ccccc2C(=O)c2c(F)cccc21 [1-fluoroanthraquinone, 1-Fluoroanthraquinone] | inhibitory effect |
| O=C1c2ccccc2C(=O)c2cc(Br)ccc21 [2-bromoanthraquinone, 2-Bromoanthraquinone] | inhibitory effect |
